# Test results published in patent US11542240B2, “STK19 inhibitors for treatment of cancer” (TRUSTEES OF BOSTON UNIVERSITY, priority 2018, dated 2023).
# Experiments:
# Assay in all cases: biochemical
# Type in all cases: binding
# [1] = target: panel of 468 diverse kinases (Homo sapiens, UniProt Q92918); conditions: HPK1; 1000 nM; read-out: Percent Control
# [2] = target: panel of 468 diverse kinases (Homo sapiens, UniProt Q96GD4); conditions: AURKB; 1000 nM; read-out: Percent Control
# [3] = target: panel of 468 diverse kinases (Homo sapiens, UniProt P20794); conditions: MAK; 1000 nM; read-out: Percent Control
# [4] = target: panel of 468 diverse kinases (Homo sapiens, UniProt O14730); conditions: RIOK3; 1000 nM; read-out: Percent Control
# [5] = target: panel of 468 diverse kinases (Homo sapiens, UniProt Q15569); conditions: TESK1; 1000 nM; read-out: Percent Control
# [6] = target: panel of 468 diverse kinases (Homo sapiens, UniProt P54760); conditions: EPHB4; 1000 nM; read-out: Percent Control
# Chain of panel of 468 diverse kinases (Homo sapiens, UniProt P54760) (P54760 16-987 limits assumed): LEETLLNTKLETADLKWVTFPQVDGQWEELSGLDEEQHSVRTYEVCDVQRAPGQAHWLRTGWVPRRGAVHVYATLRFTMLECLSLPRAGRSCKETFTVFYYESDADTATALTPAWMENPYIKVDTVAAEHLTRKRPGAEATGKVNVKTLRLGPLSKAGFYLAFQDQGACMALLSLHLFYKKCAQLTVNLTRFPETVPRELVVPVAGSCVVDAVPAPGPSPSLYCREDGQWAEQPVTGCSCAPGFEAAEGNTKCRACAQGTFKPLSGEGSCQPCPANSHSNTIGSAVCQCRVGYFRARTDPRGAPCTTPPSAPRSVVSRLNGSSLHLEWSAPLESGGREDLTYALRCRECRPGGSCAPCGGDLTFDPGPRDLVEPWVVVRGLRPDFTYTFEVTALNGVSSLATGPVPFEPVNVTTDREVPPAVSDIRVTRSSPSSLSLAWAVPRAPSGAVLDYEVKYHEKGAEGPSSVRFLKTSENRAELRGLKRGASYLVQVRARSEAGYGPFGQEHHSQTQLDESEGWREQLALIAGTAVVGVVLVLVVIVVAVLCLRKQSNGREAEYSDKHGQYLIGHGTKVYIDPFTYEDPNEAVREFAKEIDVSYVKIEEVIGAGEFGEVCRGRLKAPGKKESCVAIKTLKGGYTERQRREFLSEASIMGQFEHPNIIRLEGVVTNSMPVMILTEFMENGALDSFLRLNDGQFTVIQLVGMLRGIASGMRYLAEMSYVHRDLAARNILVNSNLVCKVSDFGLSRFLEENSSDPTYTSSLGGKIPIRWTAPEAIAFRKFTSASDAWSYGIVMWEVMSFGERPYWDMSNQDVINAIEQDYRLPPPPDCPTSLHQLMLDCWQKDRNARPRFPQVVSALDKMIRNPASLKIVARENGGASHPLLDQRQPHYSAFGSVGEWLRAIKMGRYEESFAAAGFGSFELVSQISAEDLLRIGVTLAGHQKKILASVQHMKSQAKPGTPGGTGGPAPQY
# [7] = target: panel of 468 diverse kinases (Homo sapiens, UniProt Q15303); conditions: ERBB4; 1000 nM; read-out: Percent Control
# [8] = target: panel of 468 diverse kinases (Homo sapiens, UniProt Q14680); conditions: MELK; 1000 nM; read-out: Percent Control
# [9] = target: panel of 468 diverse kinases (Homo sapiens, UniProt O00329); conditions: PIK3CD; 1000 nM; read-out: Percent Control
# [10] = target: panel of 468 diverse kinases (Homo sapiens, UniProt Q16584); conditions: MLK3; 1000 nM; read-out: Percent Control
# [11] = target: panel of 468 diverse kinases (Homo sapiens, UniProt Q8TBX8); conditions: PIP5K2C; 1000 nM; read-out: Percent Control
# Chain of panel of 468 diverse kinases (Homo sapiens, UniProt Q8TBX8) (Q8TBX8 2-421 limits assumed): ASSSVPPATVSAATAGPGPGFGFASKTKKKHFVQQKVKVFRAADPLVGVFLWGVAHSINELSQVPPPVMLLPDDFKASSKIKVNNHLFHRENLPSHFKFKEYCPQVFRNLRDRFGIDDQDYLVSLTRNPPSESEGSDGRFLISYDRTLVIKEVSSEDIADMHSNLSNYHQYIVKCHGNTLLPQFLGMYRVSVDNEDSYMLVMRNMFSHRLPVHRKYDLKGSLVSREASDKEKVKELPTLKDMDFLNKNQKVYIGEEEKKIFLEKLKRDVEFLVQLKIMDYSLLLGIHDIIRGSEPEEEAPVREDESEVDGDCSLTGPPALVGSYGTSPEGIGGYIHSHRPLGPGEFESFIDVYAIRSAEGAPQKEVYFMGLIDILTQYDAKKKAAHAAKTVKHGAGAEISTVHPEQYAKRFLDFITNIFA
# [12] = target: panel of 468 diverse kinases (Homo sapiens, UniProt Q13464); conditions: ROCK1; 1000 nM; read-out: Percent Control
# Chain of panel of 468 diverse kinases (Homo sapiens, UniProt Q13464) (Q13464 2-1354 limits assumed): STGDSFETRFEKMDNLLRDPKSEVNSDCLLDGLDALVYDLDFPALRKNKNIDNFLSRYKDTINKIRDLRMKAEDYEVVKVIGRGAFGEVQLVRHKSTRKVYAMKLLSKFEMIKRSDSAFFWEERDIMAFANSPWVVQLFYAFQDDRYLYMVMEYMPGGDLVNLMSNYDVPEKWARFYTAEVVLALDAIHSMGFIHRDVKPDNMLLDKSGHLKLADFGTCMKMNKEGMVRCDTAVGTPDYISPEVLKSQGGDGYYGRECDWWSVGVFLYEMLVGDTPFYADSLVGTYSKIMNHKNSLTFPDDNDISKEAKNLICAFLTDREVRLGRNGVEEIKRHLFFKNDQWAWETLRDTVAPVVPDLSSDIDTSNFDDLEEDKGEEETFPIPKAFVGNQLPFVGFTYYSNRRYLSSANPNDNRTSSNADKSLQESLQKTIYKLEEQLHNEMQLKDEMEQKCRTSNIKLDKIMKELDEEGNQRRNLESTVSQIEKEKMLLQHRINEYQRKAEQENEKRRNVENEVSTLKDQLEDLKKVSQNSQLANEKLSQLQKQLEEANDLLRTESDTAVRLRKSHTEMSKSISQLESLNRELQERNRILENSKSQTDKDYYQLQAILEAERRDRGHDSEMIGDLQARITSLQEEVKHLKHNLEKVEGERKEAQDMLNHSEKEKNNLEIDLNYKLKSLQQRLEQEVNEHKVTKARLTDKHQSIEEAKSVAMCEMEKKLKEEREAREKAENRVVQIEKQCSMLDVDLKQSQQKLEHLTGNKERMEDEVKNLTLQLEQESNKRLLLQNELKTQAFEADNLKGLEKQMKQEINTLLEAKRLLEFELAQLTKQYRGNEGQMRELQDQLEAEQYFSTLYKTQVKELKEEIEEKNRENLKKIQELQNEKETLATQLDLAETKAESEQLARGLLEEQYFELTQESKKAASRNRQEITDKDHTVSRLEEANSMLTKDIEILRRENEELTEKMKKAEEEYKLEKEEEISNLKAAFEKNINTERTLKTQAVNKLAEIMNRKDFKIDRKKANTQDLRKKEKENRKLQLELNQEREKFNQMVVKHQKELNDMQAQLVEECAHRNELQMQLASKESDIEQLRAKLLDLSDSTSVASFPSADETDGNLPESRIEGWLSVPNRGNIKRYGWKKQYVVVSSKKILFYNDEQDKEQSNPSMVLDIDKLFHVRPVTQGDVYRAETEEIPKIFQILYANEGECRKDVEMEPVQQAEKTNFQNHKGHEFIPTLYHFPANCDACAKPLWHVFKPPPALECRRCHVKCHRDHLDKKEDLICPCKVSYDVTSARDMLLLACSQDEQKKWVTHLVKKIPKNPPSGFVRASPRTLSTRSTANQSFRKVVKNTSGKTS
# [13] = target: panel of 468 diverse kinases (Homo sapiens, UniProt Q8IY84); conditions: NIM1; 1000 nM; read-out: Percent Control
# [14] = target: panel of 468 diverse kinases (Homo sapiens, UniProt Q12866); conditions: MERTK; 1000 nM; read-out: Percent Control
# [15] = target: panel of 468 diverse kinases (Homo sapiens, UniProt P78362); conditions: SRPK2; 1000 nM; read-out: Percent Control
# [16] = target: panel of 468 diverse kinases (Homo sapiens, UniProt P06239); conditions: LCK; 1000 nM; read-out: Percent Control
# Chain of panel of 468 diverse kinases (Homo sapiens, UniProt P06239) (P06239 2-509 limits assumed): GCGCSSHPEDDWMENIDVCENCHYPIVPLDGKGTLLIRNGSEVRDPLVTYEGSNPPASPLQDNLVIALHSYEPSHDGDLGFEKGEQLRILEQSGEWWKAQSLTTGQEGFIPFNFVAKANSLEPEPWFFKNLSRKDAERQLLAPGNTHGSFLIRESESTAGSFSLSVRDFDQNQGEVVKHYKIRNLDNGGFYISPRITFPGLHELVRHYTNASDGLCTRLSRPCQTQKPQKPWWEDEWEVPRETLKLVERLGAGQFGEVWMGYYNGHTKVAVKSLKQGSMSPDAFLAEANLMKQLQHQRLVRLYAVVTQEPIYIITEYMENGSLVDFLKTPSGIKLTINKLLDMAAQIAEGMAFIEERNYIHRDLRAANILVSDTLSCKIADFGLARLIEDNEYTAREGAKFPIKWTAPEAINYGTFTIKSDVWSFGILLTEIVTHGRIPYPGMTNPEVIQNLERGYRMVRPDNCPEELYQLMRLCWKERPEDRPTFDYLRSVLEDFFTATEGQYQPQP
# [17] = target: panel of 468 diverse kinases (Homo sapiens, UniProt P15735); conditions: PHKG2; 1000 nM; read-out: Percent Control
# [18] = target: panel of 468 diverse kinases (Homo sapiens, UniProt Q13523); conditions: PRP4; 1000 nM; read-out: Percent Control
# Chain of panel of 468 diverse kinases (Homo sapiens, UniProt Q13523) (Q13523 2-1007 limits assumed): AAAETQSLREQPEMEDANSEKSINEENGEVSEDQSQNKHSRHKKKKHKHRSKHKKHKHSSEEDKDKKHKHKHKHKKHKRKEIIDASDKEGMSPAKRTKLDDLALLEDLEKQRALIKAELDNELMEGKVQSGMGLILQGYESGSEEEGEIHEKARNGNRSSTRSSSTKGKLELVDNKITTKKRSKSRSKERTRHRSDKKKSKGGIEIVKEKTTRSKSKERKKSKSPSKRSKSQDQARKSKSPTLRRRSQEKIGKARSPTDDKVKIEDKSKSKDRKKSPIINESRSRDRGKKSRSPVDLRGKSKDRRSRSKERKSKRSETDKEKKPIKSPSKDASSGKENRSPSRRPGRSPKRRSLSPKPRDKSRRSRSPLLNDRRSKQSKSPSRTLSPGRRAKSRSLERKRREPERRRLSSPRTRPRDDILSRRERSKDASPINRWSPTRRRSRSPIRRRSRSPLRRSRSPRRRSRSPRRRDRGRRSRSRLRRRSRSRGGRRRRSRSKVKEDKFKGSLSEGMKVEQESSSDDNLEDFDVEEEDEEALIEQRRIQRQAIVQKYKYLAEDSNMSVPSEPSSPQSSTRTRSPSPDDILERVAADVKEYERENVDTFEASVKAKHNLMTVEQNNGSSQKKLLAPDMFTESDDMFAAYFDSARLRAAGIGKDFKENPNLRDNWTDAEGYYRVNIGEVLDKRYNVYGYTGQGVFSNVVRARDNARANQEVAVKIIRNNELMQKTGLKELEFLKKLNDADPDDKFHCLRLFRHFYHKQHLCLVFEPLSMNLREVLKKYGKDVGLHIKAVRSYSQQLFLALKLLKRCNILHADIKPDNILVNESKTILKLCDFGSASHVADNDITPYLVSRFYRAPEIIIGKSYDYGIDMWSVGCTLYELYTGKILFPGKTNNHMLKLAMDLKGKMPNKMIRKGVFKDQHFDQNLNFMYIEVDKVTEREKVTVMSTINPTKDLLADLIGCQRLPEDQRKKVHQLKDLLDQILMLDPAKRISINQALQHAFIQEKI
# [19] = target: panel of 468 diverse kinases (Homo sapiens, UniProt P36888, D835V); conditions: FLT3(D835V); 1000 nM; read-out: Percent Control
# [20] = target: panel of 468 diverse kinases (Homo sapiens, UniProt O14965); conditions: AURKA; 1000 nM; read-out: Percent Control
# [21] = target: panel of 468 diverse kinases (Homo sapiens, UniProt Q15139); conditions: PRKD1; 1000 nM; read-out: Percent Control
# [22] = target: panel of 468 diverse kinases (Homo sapiens, UniProt Q7KZI7); conditions: MARK2; 1000 nM; read-out: Percent Control
# [23] = target: panel of 468 diverse kinases (Homo sapiens, UniProt Q13163); conditions: MEK5; 1000 nM; read-out: Percent Control
# [24] = target: panel of 468 diverse kinases (Homo sapiens, UniProt P08581, M1250T); conditions: MET(M1250T); 1000 nM; read-out: Percent Control
# [25] = target: panel of 468 diverse kinases (Homo sapiens, UniProt Q13233); conditions: MAP3K1; 1000 nM; read-out: Percent Control
# [26] = target: panel of 468 diverse kinases (Homo sapiens, UniProt O60285); conditions: ARK5; 1000 nM; read-out: Percent Control
# [27] = target: panel of 468 diverse kinases (Homo sapiens, UniProt P36888, K663Q); conditions: FLT3(K663Q); 1000 nM; read-out: Percent Control
# [28] = target: panel of 468 diverse kinases (Homo sapiens, UniProt Q15375); conditions: EPHA7; 1000 nM; read-out: Percent Control
# [29] = target: panel of 468 diverse kinases (Homo sapiens, UniProt O95835); conditions: LATS1; 1000 nM; read-out: Percent Control
# [30] = target: panel of 468 diverse kinases (Homo sapiens, UniProt P48730); conditions: CSNK1D; 1000 nM; read-out: Percent Control
# [31] = target: panel of 468 diverse kinases (Homo sapiens, UniProt P80192); conditions: MLK1; 1000 nM; read-out: Percent Control
compound,measurement,setting,value
COc1cc2nc(NC3CC3)nc(NC3CCN(C(C)C)CC3)c2cc1OC [Formula IV],remaining activity at 1 µM,[1],86%
same,remaining activity at 1 µM,[2],84%
same,remaining activity at 1 µM,[3],88%
same,remaining activity at 1 µM,[4],100%
same,remaining activity at 1 µM,[5],100%
same,remaining activity at 1 µM,[6],100%
same,remaining activity at 1 µM,[7],96%
same,remaining activity at 1 µM,[8],85%
same,remaining activity at 1 µM,[9],74%
same,remaining activity at 1 µM,[10],93%
same,remaining activity at 1 µM,[11],80%
same,remaining activity at 1 µM,[12],45%
same,remaining activity at 1 µM,[13],72%
same,remaining activity at 1 µM,[14],70%
same,remaining activity at 1 µM,[15],80%
same,remaining activity at 1 µM,[16],100%
same,remaining activity at 1 µM,[17],83%
same,remaining activity at 1 µM,[18],84%
same,remaining activity at 1 µM,[19],44%
same,remaining activity at 1 µM,[20],56%
same,remaining activity at 1 µM,[21],100%
same,remaining activity at 1 µM,[22],100%
same,remaining activity at 1 µM,[23],60%
same,remaining activity at 1 µM,[24],88%
same,remaining activity at 1 µM,[25],54%
same,remaining activity at 1 µM,[26],98%
same,remaining activity at 1 µM,[27],98%
same,remaining activity at 1 µM,[28],93%
same,remaining activity at 1 µM,[29],100%
same,remaining activity at 1 µM,[30],98%
same,remaining activity at 1 µM,[31],98%
